A short description of series [1]: Solubility of the compound in water after 24 hrs by HPLC analysis. Format: physicochemical.
The test system of series [2] is BXPC-3. Put plainly: Antiproliferative activity against human BxPC3 cells after 72 hrs by sulforhodamine B assay. Format: functional, cell-based. As to conditions: BXPC-3, 72 h. For orientation: In SRB staining, fixed cells bind dye roughly in proportion to their protein.
In a further series the target is Tubulin (Homo sapiens) (UniProt P68371+Q9H4B7+P0DPH7+P68366+Q13509+Q71U36+P04350+Q3ZCM7+P07437+P68363+Q9BQE3+Q6PEY2+Q13885+Q9BVA1+Q9BUF5). Put plainly: Inhibition of tubulin polymerization (unknown origin) at 5 uM after 1 min in presence of GTP by fluorescence-based assay relative to control. Format: protein-complex assay.
The species named for the next series is Homo sapiens. As to the kind of experiment: Inhibition of beta-tubulin polymerization in human BxPC3 cells at 5 nM after 24 hrs by DAPI staining-based fluorescence microscopic analysis. Format: cell-based.
The test system of series [3] is BXPC-3. Put plainly: Antiproliferative activity against human BxPC3 cells at 12.5 nM after 72 hrs by MTT assay relative to control. Format: functional. For orientation: Tetrazolium dyes change colour on reduction, which living cells bring about.

pIC50: −log10 of the molar value. ≈ marks a conversion by molar mass, not a printed value. Calls of active or inactive are those of the source. The rule behind the calls is not given here. A value given as a limit tells only on which side of the number the result lay.

The solubility is the dissolved amount per volume that the medium holds. High values mean a readily soluble substance, low ones a poorly soluble substance. Broadly, the pIC50 is the negative decadic logarithm of the IC50, by convention in mol/L. Higher therefore signals a small IC50. A word on the inhibition: it is how much of the control response was suppressed.

In turn, `CC(C)(C)c1[nH]cnc1/C=c1\[nH]c(=O)/c(=C/c2cccc(C(=O)c3cccs3)c2)[nH]c1=O` showed a solubility in series [1] of less than 0.1 µg/mL. This molecule had a negative-log IC50 (pIC50) in the series with BXPC-3 [2] of 8.76. Further, the inhibition on Tubulin (Homo sapiens) was 46.4%.
On to `CC(C)(C)c1[nH]cnc1/C=c1\[nH]c(=O)/c(=C/c2cccc(C(=O)c3ccoc3)c2)[nH]c1=O`, for which, in series [1], the solubility is less than 0.1 µg/mL. The molecule also had a pIC50 in the series on BXPC-3 [2] of 8.03.
For `CC(C)(C)c1[nH]cnc1/C=c1\[nH]c(=O)/c(=C/c2cccc(C(=O)N3CCC3)c2)[nH]c1=O` the same measures were 4.231 µg/mL (≈ 10.1 µM) and less than 6.30.
Molecule `CC(C)(C)c1[nH]cnc1/C=c1\[nH]c(=O)/c(=C/c2cccc(C(=O)c3cccnc3)c2)[nH]c1=O` had a solubility in series [1] of less than 0.1 µg/mL. Moreover, the negative logarithm of the IC50 (pIC50) in the series on BXPC-3 [2] is 8.39. Moreover, the inhibition on Tubulin (Homo sapiens) stood at 28.8%.
With `CN1CCN(C(=O)c2cccc(/C=c3\[nH]c(=O)/c(=C/c4ccccn4)[nH]c3=O)c2)CC1`, the solubility in series [1] came to 16.302 µg/mL (≈ 39 µM). This molecule also showed a negative-log IC50 (pIC50) in the series with BXPC-3 [2] of less than 6.30.
`CC(C)(C)c1[nH]cnc1/C=c1\[nH]c(=O)/c(=C/c2cccc(C(=O)N3CCCCC3)c2)[nH]c1=O` showed a solubility in series [1] of less than 0.1 µg/mL. This molecule also had a pIC50 in the series with BXPC-3 [2] of 7.00.
With `O=C(c1cccc(/C=c2\[nH]c(=O)/c(=C/c3ccccn3)[nH]c2=O)c1)N1CCC1`, the solubility in series [1] came to 0.662 µg/mL (≈ 1.77 µM). In the series with BXPC-3 [2], this molecule had a pIC50 of less than 6.30.
In the case of `CC(C)(C)c1[nH]cnc1/C=c1\[nH]c(=O)/c(=C/c2cccc(C(=O)c3ccco3)c2)[nH]c1=O`, the solubility in series [1] was less than 0.1 µg/mL. This molecule had a pIC50 in the series with BXPC-3 [2] of 8.03.
The corresponding values for `CC(C)(C)c1[nH]cnc1/C=c1\[nH]c(=O)/c(=C/c2cccc(C(=O)N3CCCC3)c2)[nH]c1=O` are 0.454 µg/mL (≈ 1.05 µM) and 6.49.
With `CC(C)(C)c1[nH]cnc1/C=c1\[nH]c(=O)/c(=C/c2cccc(C(=O)c3ccc[nH]3)c2)[nH]c1=O`, the pIC50 in the series with BXPC-3 [2] is less than 7.00.
In series [1], `CC(C)(C)c1[nH]cnc1/C=c1\[nH]c(=O)/c(=C/c2ccccc2)[nH]c1=O` [PLINABULIN] displayed a solubility of less than 0.1 µg/mL. Further, the pIC50 with BXPC-3 [2] was 8.37. For the same molecule, the inhibition at Tubulin (Homo sapiens) came out at 18.3%. Further, the inhibition result in the series listed under Homo sapiens was “Active”.
In series [1], `O=C(c1cccc(/C=c2\[nH]c(=O)/c(=C/c3ccccn3)[nH]c2=O)c1)N1CCCCC1` registered a solubility of less than 0.1 µg/mL. In addition, the pIC50 with BXPC-3 [2] is less than 6.30.
In the case of `CC(C)(C)c1[nH]cnc1/C=c1\[nH]c(=O)/c(=C/c2cccc(C(=O)c3ccccn3)c2)[nH]c1=O`, in series [1], the solubility was less than 0.1 µg/mL. Further, in the series with BXPC-3 [2], the pIC50 was 8.12. In addition, the inhibition at Tubulin (Homo sapiens) came out at 36.6%.
As for `CC(C)(C)c1[nH]cnc1/C=c1\[nH]c(=O)/c(=C/c2cccc(C(=O)N3CCOCC3)c2)[nH]c1=O`, in series [1], the solubility is 1.79 µg/mL (≈ 3.98 µM). The molecule further had a negative logarithm of the IC50 (pIC50) with BXPC-3 [2] of 6.59.
`CC(C)(C)c1[nH]cnc1/C=c1\[nH]c(=O)/c(=C/c2cccc(C(=O)c3ccccc3)c2)[nH]c1=O` gave a solubility in series [1] of less than 0.1 µg/mL.
In the series with BXPC-3 [2], `CC(C)(C)c1[nH]cnc1/C=c1\[nH]c(=O)/c(=C/c2cccc(C(=O)c3cc[nH]c3)c2)[nH]c1=O` showed a pIC50 of less than 7.00.
In the case of `O=C(c1ccccc1)c1cccc(/C=c2\[nH]c(=O)/c(=C/c3ccccn3)[nH]c2=O)c1`, the solubility in series [1] was less than 0.1 µg/mL. In the series with BXPC-3 [2], this molecule had a pIC50 of 8.20. Moreover, the Activity with BXPC-3 [3] was found to be 85%.
As for `CC(C)(C)c1[nH]cnc1/C=c1\[nH]c(=O)/c(=C/c2cccc(C(=O)c3cncs3)c2)[nH]c1=O`, in series [1], the solubility was less than 0.1 µg/mL. In the series on BXPC-3 [2], this molecule showed a pIC50 of 7.77. For the same molecule, at Tubulin (Homo sapiens), the inhibition was found to be 19.9%.
In the case of `CC(C)(C)c1[nH]cnc1/C=c1\[nH]c(=O)/c(=C/c2cccc(C(=O)c3ccncc3)c2)[nH]c1=O`, in series [1], the solubility was less than 0.1 µg/mL. The molecule also gave a negative-log IC50 (pIC50) in the series on BXPC-3 [2] of 7.62. Besides, at Tubulin (Homo sapiens), the inhibition was determined as 34.1%.
The corresponding values for `CC(C)(C)c1[nH]cnc1/C=c1\[nH]c(=O)/c(=C/c2cccc(C(=O)c3ccsc3)c2)[nH]c1=O` are less than 0.1 µg/mL, 8.81 and 39.3%.
In series [1], `CN1CCN(C(=O)c2cccc(/C=c3\[nH]c(=O)/c(=C/c4nc[nH]c4C(C)(C)C)[nH]c3=O)c2)CC1` gave a solubility of 85.568 µg/mL (≈ 185 µM). The molecule further showed a pIC50 with BXPC-3 [2] of less than 6.30.

The values are drawn from ChEMBL document CHEMBL4219170, “Design, synthesis and biological evaluation of anti-pancreatic cancer activity of plinabulin derivatives based on the co-crystal structure” (Bioorg Med Chem, 2018).
